Common to all, as to assay type: in vivo
The nature of assay [1]: Antipyretic activity: TTG-induced fever test in guinea pigs. The settings on record: Cavia porcellus, po, read-out: ID50 Antipyretic. The source says:
Antipyretic activity Tested by TTG-induced fever test in guinea pigs [ modified methodof S. Kobayashi, H. Takagi; Jap.

The nature of assay [2]: Anti-inflammatory activity: carrageenin edema test in rats. The settings on record: Rattus norvegicus, po, read-out: ID50 Anti-inflammatory. An excerpt:
Anti-inflammatory activity
Tested by carrageenin edema test in rats [C.

The nature of assay [3]: Analgesic activity: thermal pain test in rats. The settings on record: Rattus norvegicus, po, read-out: ID50 Analgesic.
[4] abbreviates: TTG-induced fever test in guinea pigs.

Three compounds from US4007179A, “Oxoindanylpropionic acids and process for the preparation thereof” (Sankyo Company Limited, priority 1975, dated 1977) can be followed below.

For the compound `CCC1Cc2ccc(C(C)C(=O)O)cc2C1` (stereo not drawn) [2-(2-Ethylindan-5-yl)propionic acid], the ED50 in assay [1] (setting [4]) stood at 1.7 mg/kg; in assay [2] (carrageenin edema test in rats) it was 10.3 mg/kg; in assay [3] (thermal pain test in rats) it was 10.5 mg/kg.

Turning to `CC(=O)Oc1ccccc1C(=O)O` [Acetylsalicylic acid, reference compound], the ED50 in assay [1] amounted to 194 mg/kg; in assay [2], 133 mg/kg; in assay [3], 81 mg/kg.

For the compound `CC(C(=O)O)c1ccc2c(c1)CC(C(C)C)C2` (stereo not drawn) [2-(2-Isopropylindan-5-yl)propionic acid], the ED50 in assay [1] (setting [4]) was 1.8 mg/kg; in assay [2] (carrageenin edema test in rats), 7.1 mg/kg; in assay [3] (thermal pain test in rats), 2.5 mg/kg.
